Results taken from patent publication US7632918B2, “Semi-synthetic glycopeptides with antibiotic activity” (Novartis Vaccines and Diagnostics, Inc., priority 2005, dated 2009).
Converted amounts (≈) assume the structure as drawn.

What was measured:
Test in all cases: MIC, broth microdilution in Meuller-Hinton broth (NCCLS)
533 S. epidermidis = type: cell-based, Staphylococus epidermidis; conditions: clinical isolate
Description: (§1) Antibacterial activity in vitro was investigated by broth microdilution method in Meuller-Hinton broth as recommended by NCCLS. All strains tested were clinical isolates either sensitive or resistant to natural glycopeptides. Results are reported in the tables as MIC (minimal inhibitory concentration) in μg/ml.
(§2) The glycopeptides were tested against a variety of strains, indicated below, including Staphylococus epidermidis, Staphylococus haemolyticus, glycopeptides-intermediate Staphylococus aureus (GISA), glocopeptide-sensitive Enterococcus faecalis (GSE), and glocopeptide-resistant Enterococcus faecalis (GRE). Results are shown in the table as minimum inhibitory concentration (MIC) in units of μg/ml: […]

568 E. faecium (GSE) = type: cell-based; conditions: glycopeptide-sensitive clinical isolate
Description: as §1, §2

569 E. faecium (GRE) = type: cell-based; conditions: glycopeptide-resistant clinical isolate
Description: as §1, §2

3798 S. aureus (GISA) = type: cell-based, Staphylococus aureus; conditions: glycopeptides-intermediate clinical isolate
Description: as §1, §2

3797 S. aureus (GISA) = type: cell-based, Staphylococus aureus; conditions: glycopeptides-intermediate clinical isolate
Description: as §1, §2

602 S. haemolyticus = type: cell-based, Staphylococus haemolyticus; conditions: clinical isolate
Description: as §1, §2

560 E. faecalis (GRE) = type: cell-based, Enterococcus faecalis; conditions: glycopeptide-resistant clinical isolate
Description: as §1, §2

559 E. faecalis (GSE) = type: cell-based, Enterococcus faecalis; conditions: glycopeptide-sensitive clinical isolate
Description: as §1, §2

Structure (SMILES) | MIC 533 S. epidermidis (533 S. epidermidis) [µg/mL] | MIC 568 E. faecium (GSE) (568 E. faecium (GSE)) [µg/mL] | MIC 569 E. faecium (GRE) (569 E. faecium (GRE)) [µg/mL] | MIC 3798 S. aureus (GISA) (3798 S. aureus (GISA)) [µg/mL] | MIC 3797 S. aureus (GISA) (3797 S. aureus (GISA)) [µg/mL] | MIC 602 S. haemolyticus (602 S. haemolyticus) [µg/mL] | MIC 560 E. faecalis (GRE) (560 E. faecalis (GRE)) [µg/mL] | MIC 559 E. faecalis (GSE) (559 E. faecalis (GSE)) [µg/mL]
CNC(CC(C)C)C(=O)NC1C(=O)NC(CC(N)=O)C(=O)NC2C(=O)NC3C(=O)NC(C(=O)NC(C(=O)O)c4cc(O)cc(O)c4-c4cc3ccc4O)C(OC3CC(C)(N)C(O)C(C)O3)c3ccc(cc3)Oc3cc2cc(c3OC2OC(CO)C(O)C(O)C2OC2CC(C)(NC(=O)CNCc3ccc(-c4ccc(Cl)cc4)cc3)C(O)C(C)O2)Oc2ccc(cc2Cl)C1O (centres unmarked) [Compound 44] | 0.5 (≈ 0.275 µM) | 1 (≈ 0.551 µM) | 8 (≈ 4.41 µM) | 4 (≈ 2.2 µM) | 4 (≈ 2.2 µM) | 2 (≈ 1.1 µM) | 8 (≈ 4.41 µM) | 1 (≈ 0.551 µM)
CCCCc1ccc(CNCC(=O)NC2(C)CC(OC3C(Oc4c5cc6cc4Oc4ccc(cc4Cl)C(O)C(NC(=O)C(CC(C)C)NC)C(=O)NC(CC(N)=O)C(=O)NC6C(=O)NC4C(=O)NC(C(=O)NC(C(=O)O)c6cc(O)cc(O)c6-c6cc4ccc6O)C(OC4CC(C)(N)C(O)C(C)O4)c4ccc(cc4)O5)OC(CO)C(O)C3O)OC(C)C2O)cc1 (centres unmarked) [Compound 57, N′-p-BuBnHNCH2CO eremomycin] | 0.5 (≈ 0.284 µM) | 0.5 (≈ 0.284 µM) | 4 (≈ 2.27 µM) | 4 (≈ 2.27 µM) | 4 (≈ 2.27 µM) | 2 (≈ 1.14 µM) | 4 (≈ 2.27 µM) | 0.5 (≈ 0.284 µM)
CCCCc1ccc(CNCC(=O)NC2(C)CC(OC3C(Oc4c5cc6cc4Oc4ccc(cc4Cl)C(O)C(NC(=O)C(CC(C)C)NC)C(=O)NC(CC(N)=O)C(=O)NC6C(=O)NC4C(=O)NC(C(=O)NC(C(=O)NC)c6cc(O)cc(O)c6-c6cc4ccc6O)C(OC4CC(C)(N)C(O)C(C)O4)c4ccc(cc4)O5)OC(CO)C(O)C3O)OC(C)C2O)cc1 (centres unmarked) [Compound 77] | 1 (≈ 0.564 µM) | 2 (≈ 1.13 µM) | 8 (≈ 4.51 µM) | 2 (≈ 1.13 µM) | 2 (≈ 1.13 µM) | 2 (≈ 1.13 µM) | 8 (≈ 4.51 µM) | 2 (≈ 1.13 µM)
CCCCc1ccc(CNCC(=O)NC2(C)CC(OC3C(Oc4c5cc6cc4Oc4ccc(cc4Cl)C(O)C4NC(=O)C(NC(=O)C6NC(=O)C(CC(N)=O)NC(=O)C(NC(=O)C(CC(C)C)NC)C(O)c6ccc(c(Cl)c6)O5)c5ccc(O)c(c5)-c5c(O)cc(O)cc5C(C(=O)O)NC4=O)OC(CO)C(O)C3O)OC(C)C2O)cc1 (centres unmarked) [Compound 182] | 0.25 (≈ 0.151 µM) | 0.5 (≈ 0.303 µM) | 32 (≈ 19.4 µM) | 2 (≈ 1.21 µM) | 2 (≈ 1.21 µM) | 0.5 (≈ 0.303 µM) | 32 (≈ 19.4 µM) | 1 (≈ 0.605 µM)
CCCCCCCCCC(=O)NCC(=O)NC1(C)CC(OC2C(Oc3c4cc5cc3Oc3ccc(cc3Cl)C(O)C(NC(=O)C(CC(C)C)NC)C(=O)NC(CC(N)=O)C(=O)NC5C(=O)NC3C(=O)NC(C(=O)NC(C(=O)O)c5cc(O)cc(O)c5-c5cc3ccc5O)C(OC3CC(C)(N)C(O)C(C)O3)c3ccc(cc3)O4)OC(CO)C(O)C2O)OC(C)C1O (centres unmarked) [Compound 186] | 2 (≈ 1.13 µM) | 1 (≈ 0.565 µM) | >64 | 16 (≈ 9.04 µM) | 16 (≈ 9.04 µM) | 2 (≈ 1.13 µM) | >64 | 2 (≈ 1.13 µM)
CCCCN(CCCC)c1ccc(CNCC(=O)NC2(C)CC(OC3C(Oc4c5cc6cc4Oc4ccc(cc4Cl)C(O)C(NC(=O)C(CC(C)C)NC)C(=O)NC(CC(N)=O)C(=O)NC6C(=O)NC4C(=O)NC(C(=O)NC(C(=O)O)c6cc(O)cc(O)c6-c6cc4ccc6O)C(OC4CC(C)(N)C(O)C(C)O4)c4ccc(cc4)O5)OC(CO)C(O)C3O)OC(C)C2O)cc1 (centres unmarked) [Compound 187] | 1 (≈ 0.546 µM) | 1 (≈ 0.546 µM) | 32 (≈ 17.5 µM) | 8 (≈ 4.37 µM) | 8 (≈ 4.37 µM) | 1 (≈ 0.546 µM) | 32 (≈ 17.5 µM) | 2 (≈ 1.09 µM)
CCCCOc1ccc(CNCC(=O)NC2(C)CC(OC3C(Oc4c5cc6cc4Oc4ccc(cc4Cl)C(O)C(NC(=O)C(CC(C)C)NC)C(=O)NC(CC(N)=O)C(=O)NC6C(=O)NC4C(=O)NC(C(=O)NC(C(=O)O)c6cc(O)cc(O)c6-c6cc4ccc6O)C(OC4CC(C)(N)C(O)C(C)O4)c4ccc(cc4)O5)OC(CO)C(O)C3O)OC(C)C2O)cc1 (centres unmarked) [Compound 193] | 0.5 (≈ 0.281 µM) | 1 (≈ 0.563 µM) | 64 (≈ 36 µM) | 4 (≈ 2.25 µM) | 4 (≈ 2.25 µM) | 1 (≈ 0.563 µM) | 64 (≈ 36 µM) | 2 (≈ 1.13 µM)
CCCCCCCCCCN(CCCCCCCCCC)CC(=O)NC1(C)CC(OC2C(Oc3c4cc5cc3Oc3ccc(cc3Cl)C(O)C(NC(=O)C(CC(C)C)NC)C(=O)NC(CC(N)=O)C(=O)NC5C(=O)NC3C(=O)NC(C(=O)NC(C(=O)O)c5cc(O)cc(O)c5-c5cc3ccc5O)C(OC3CC(C)(N)C(O)C(C)O3)c3ccc(cc3)O4)OC(CO)C(O)C2O)OC(C)C1O (centres unmarked) [Compound 194] | 2 (≈ 1.06 µM) | 2 (≈ 1.06 µM) | 8 (≈ 4.22 µM) | 8 (≈ 4.22 µM) | 8 (≈ 4.22 µM) | 2 (≈ 1.06 µM) | 16 (≈ 8.44 µM) | 4 (≈ 2.11 µM)
CNC(CC(C)C)C(=O)NC1C(=O)NC(CC(N)=O)C(=O)NC2C(=O)NC3C(=O)NC(C(=O)NC(C(=O)O)c4cc(O)cc(O)c4-c4cc3ccc4O)C(OC3CC(C)(N)C(O)C(C)O3)c3ccc(cc3)Oc3cc2cc(c3OC2OC(CO)C(O)C(O)C2OC2CC(C)(NC(=O)CNC(=O)OCC3c4ccccc4-c4ccccc43)C(O)C(C)O2)Oc2ccc(cc2Cl)C1O (centres unmarked) [Compound 221] |  | 0.5 (≈ 0.272 µM) | 64 (≈ 34.8 µM) |  |  |  | >64 | 0.5 (≈ 0.272 µM)
CNC(CC(C)C)C(=O)NC1C(=O)NC(CC(N)=O)C(=O)NC2C(=O)NC3C(=O)NC(C(=O)NC(C(=O)O)c4cc(O)cc(O)c4-c4cc3ccc4O)C(OC3CC(C)(N)C(O)C(C)O3)c3ccc(cc3)Oc3cc2cc(c3OC2OC(CO)C(O)C(O)C2OC2CC(C)(NC(=O)CNC(=O)OC34CC5CC(CC(C5)C3)C4)C(O)C(C)O2)Oc2ccc(cc2Cl)C1O (centres unmarked) [Compound 222] |  | 1 (≈ 0.558 µM) | >64 |  |  |  | >64 | 2 (≈ 1.12 µM)
CCCCCCCCOc1ccc(CNCC(=O)NC2(C)CC(OC3C(Oc4c5cc6cc4Oc4ccc(cc4Cl)C(O)C(NC(=O)C(CC(C)C)NC)C(=O)NC(CC(N)=O)C(=O)NC6C(=O)NC4C(=O)NC(C(=O)NC(C(=O)NC6C7CC8CC(C7)CC6C8)c6cc(O)cc(O)c6-c6cc4ccc6O)C(OC4CC(C)(N)C(O)C(C)O4)c4ccc(cc4)O5)OC(CO)C(O)C3O)OC(C)C2O)cc1 (centres unmarked) [Compound 265] | 32 (≈ 16.3 µM) |  |  | >32 | >32 | 32 (≈ 16.3 µM) |  | 
CCCCCCCCOc1ccc(CNCC(=O)NC2(C)CC(OC3C(Oc4c5cc6cc4Oc4ccc(cc4Cl)C(O)C(NC(=O)C(CC(C)C)NC)C(=O)NC(CC(N)=O)C(=O)NC6C(=O)NC4C(=O)NC(C(=O)NC(C(=O)NC(C)C67CC8CC(CC(C8)C6)C7)c6cc(O)cc(O)c6-c6cc4ccc6O)C(OC4CC(C)(N)C(O)C(C)O4)c4ccc(cc4)O5)OC(CO)C(O)C3O)OC(C)C2O)cc1 (centres unmarked) [Compound 266] | 16 (≈ 8.02 µM) |  |  | >32 | >32 | 32 (≈ 16 µM) |  | 
